Assay results published in patent US10800792B2, “Inhibitors of Bruton's tyrosine kinase and method of their use” (JANSSEN PHARMACEUTICA NV, priority 2015, dated 2020).

Each molecule was assayed against unphosphorylated-BTK kinase domain (UP-BTK), GST-tagged human BTK (389-659aa) (Homo sapiens (Human), UniProt Q06187) (assay: BTK kinase Lanthascreen binding assay). Details: Lanthascreen tracer competition, 60 minutes incubation; pIC50 = negative log of the IC50 in molar.
Outline: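 A fluorescent tracer is bound to unphosphorylated BTK; test compound is added to compete it off; the Lanthascreen signal is read and IC50 is fitted, then reported as its negative log in molar.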

unphosphorylated-BTK kinase domain (UP-BTK), GST-tagged human BTK (389-659aa), sequence (Q06187 389-659): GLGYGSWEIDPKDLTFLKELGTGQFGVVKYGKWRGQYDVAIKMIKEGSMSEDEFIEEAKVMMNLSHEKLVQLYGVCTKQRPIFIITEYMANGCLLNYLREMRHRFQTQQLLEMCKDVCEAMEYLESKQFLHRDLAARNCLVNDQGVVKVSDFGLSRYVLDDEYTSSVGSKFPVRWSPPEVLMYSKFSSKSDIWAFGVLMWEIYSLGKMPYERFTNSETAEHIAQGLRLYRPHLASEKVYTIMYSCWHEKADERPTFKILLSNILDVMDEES

| SMILES | BTK_I_binding pIC50 |
| --- | --- |
| Cc1cc(Oc2ccccc2)ccc1N1C(=O)Nc2c(C(=O)NC3CCCN(C#N)C3)sc3nccc1c23 (stereo not shown) [Example 890, N-(1-Cyanopiperidin-3-yl)-5-(2-methyl-4-phenoxyphenyl)-4-oxo-4,5-dihydro-3H-1-thia-3,5,8-triazaacenaphthylene-2-carboxamide] | 7.0 |
| CC(=O)N1CCC[C@@H](NC(=O)c2sc3nccc4c3c2NC(=O)N4c2ccc(Oc3ccccn3)cc2C)C1 [Example 800, (R)—N-(1-Acetylpiperidin-3-yl)-5-(2-methyl-4-(pyridin-2-yloxy)phenyl)-4-oxo-4,5-dihydro-3H-1-thia-3,5,8-triazaacenaphthylene-2-carboxamide] | 6.2 |
| C=CC(=O)N1CC[C@@H](NC(=O)c2sc3nccc4c3c2NC(=O)N4c2ccc(Oc3cccnn3)cc2)C1 [Example 803, (R)—N-(1-Acryloylpyrrolidin-3-yl)-4-oxo-5-(4-(pyridazin-3-yloxy)phenyl)-4,5-dihydro-3H-1-thia-3,5,8-triazaacenaphthylene-2-carboxamide] | 6.1 |
| C=CC(=O)N1CCC[C@@H](NC(=O)c2sc3nccc4c3c2NC(=O)N4c2ccc(Oc3ccc(C)nc3)cc2C)C1 [Example 783, (R)—N-(1-Acryloylpiperidin-3-yl)-5-(2-methyl-4-((6-methylpyridin-3-yl)oxy)phenyl)-4-oxo-4,5-dihydro-3H-1-thia-3,5,8-triazaacenaphthylene-2-carboxamide] | 7.1 |
| CCN1CCCC(C(=O)Nc2sc3nccc4c3c2NC(=O)N4c2ccc(Oc3ccccc3)cc2C)C1 (stereo not shown) [Example 821, 1-Ethyl-N-(5-(2-methyl-4-phenoxyphenyl)-4-oxo-4,5-dihydro-3H-1-thia-3,5,8-triazaacenaphthylen-2-yl)piperidine-3-carboxamide] | 5.8 |
| CO[C@H]1CN(C(=O)OC(C)(C)C)C[C@@H]1NC(=O)c1sc2nccc3c2c1NC(=O)N3c1ccc(Oc2ccccc2)cc1 [Example 639, (3S,4S)-tert-Butyl 3-methoxy-4-(4-oxo-5-(4-phenoxyphenyl)-4,5-dihydro-3H-1-thia-3,5,8-triazaacenaphthylene-2-carboxamido)pyrrolidine-1-carboxylate] | 5.7 |
| C=CC(=O)N1CCC[C@@H](NC(=O)c2sc3nccc4c3c2NC(=O)N4c2cccc(-c3ccccc3)n2)C1 [Example 604, (R)—N-(1-Acryloylpiperidin-3-yl)-4-oxo-5-(6-phenylpyridin-2-yl)-4,5-dihydro-3H-1-thia-3,5,8-triazaacenaphthylene-2-carboxamide] | 6.3 |
| C=CC(=O)N1CCC[C@@H](NC(=O)c2sc3nccc4c3c2NC(=O)N4c2ccc(CC(C)C)nc2C)C1 [Example 764, (R)—N-(1-Acryloylpiperidin-3-yl)-5-(6-isobutyl-2-methylpyridin-3-yl)-4-oxo-4,5-dihydro-3H-1-thia-3,5,8-triazaacenaphthylene-2-carboxamide] | 6.3 |
| Cc1cc(OCC(C)C)ncc1N1C(=O)Nc2c(C(=O)N[C@@H]3CCNC3)sc3nccc1c23 (single isomer, unassigned) [Example 798, (R)-5-(*S)-(6-Isobutoxy-4-methylpyridin-3-yl)-4-oxo-N-(pyrrolidin-3-yl)-4,5-dihydro-3H-1-thia-3,5,8-triazaacenaphthylene-2-carboxamide] | 6.3 |

Same assay, conditions: Lanthascreen tracer competition, 60 minutes incubation; pIC50 = negative log of the IC50 in molar; read-out: BTK_I_binding pIC50 (converted)

| SMILES | IC50 [nM] |
| --- | --- |
| Cc1nc(Oc2ccccc2)ccc1N1C(=O)Nc2c(C(=O)N[C@@H]3CCCN(C(=O)OC(C)(C)C)C3)sc3nccc1c23 [Example 743, (R)-tert-Butyl 3-(5-(2-methyl-6-phenoxypyridin-3-yl)-4-oxo-4,5-dihydro-3H-1-thia-3,5,8-triazaacenaphthylene-2-carboxamido)piperidine-1-carboxylate] | 1580 |
| Cc1cc(Oc2ccccc2)ccc1N1C(=O)Nc2c(C(=O)N[C@@H]3CCCN(C(=O)/C=C/CN4C[C@@H]5OCCO[C@@H]5C4)C3)sc3nccc1c23 (single isomer, unassigned) [Example 684, 5-(*S)-(2-Methyl-4-phenoxyphenyl)-4-oxo-N—((R)-1-((E)-4-((4aR,7aS)-tetrahydro-2H-[1,4]dioxino[2,3-c]pyrrol-6(3H)-yl)but-2-enoyl)piperidin-3-yl)-4,5-dihydro-3H-1-thia-3,5,8-triazaacenaphthylene-2-carboxamide] | 31.6 |

Same assay, conditions: pIC50 = negative log of the IC50 in molar; 60 minutes incubation, 50 nM Tracer 236

| SMILES | BTK_I_binding pIC50 |
| --- | --- |
| Cc1cc(Oc2ccccc2)ccc1N1C(=O)Nc2c(C(=O)NC3CCN(C)CC3C)sc3nccc1c23 (stereo not shown) [Example 165, N-(1,3-Dimethylpiperidin-4-yl)-5-(2-methyl-4-phenoxyphenyl)-4-oxo-4,5-dihydro-3H-1-thia-3,5,8-triazaacenaphthylene-2-carboxamide] | 6.6 |
| CCN1CCC[C@@H](NC(=O)c2sc3nccc4c3c2NC(=O)N4c2ccc(Oc3ccccc3)cc2C)C1 [Example 74, (R)—N-(1-Ethylpiperidin-3-yl)-5-(2-methyl-4-phenoxyphenyl)-4-oxo-4,5-dihydro-3H-1-thia-3,5,8-triazaacenaphthylene-2-carboxamide] | 6.9 |
| CCC(=O)N1CCC[C@@H](NC(=O)c2sc3nccc4c3c2NC(=O)N4c2ccc(Oc3ccccc3)cc2C)C1 (single isomer, unassigned) [Example 184, (R)-5-(*S)-(2-Methyl-4-phenoxyphenyl)-4-oxo-N-(1-propionylpiperidin-3-yl)-4,5-dihydro-3H-1-thia-3,5,8-triazaacenaphthylene-2-carboxamide] | 7.4 |

Same assay, conditions: pIC50 = negative log of the IC50 in molar; 60 minutes incubation, 50 nM Tracer 236; read-out: BTK_I_binding pIC50 (converted)

| SMILES | IC50 [nM] |
| --- | --- |
| C=CC(=O)N1C[C@H](NC(=O)c2sc3nccc4c3c2NC(=O)N4c2ccc(Oc3ccccc3)cc2C)C[C@@H](OC)C1 [Example 8, N-((3R,5R)-1-Acryloyl-5-methoxypiperidin-3-yl)-5-(2-methyl-4-phenoxyphenyl)-4-oxo-4,5-dihydro-3H-1-thia-3,5,8-triazaacenaphthylene-2-carboxamide] | 15.8 |

Same assay, conditions: unphosphorylated-BTK kinase domain, 50 nM Tracer 236, 60 minutes; pIC50 = negative log of the IC50 in molar

| SMILES | BTK_I_binding pIC50 |
| --- | --- |
| CN(C)C/C=C/C(=O)N1CCC[C@@H](NC(=O)c2sc3nccc4c3c2NC(=O)N4c2ccc(Oc3ccccc3)c(Cl)c2)C1 [Example 541, (R,E)-5-(3-Chloro-4-phenoxyphenyl)-N-(1-(4-(dimethylamino)but-2-enoyl)piperidin-3-yl)-4-oxo-4,5-dihydro-3H-1-thia-3,5,8-triazaacenaphthylene-2-carboxamide] | 7.2 |
| C=CC(=O)N1CCC[C@@H](NC(=O)c2sc3nccc4c3c2NC(=O)N4c2cc3ccccc3s2)C1 [Example 427, (R)—N-(1-Acryloylpiperidin-3-yl)-5-(benzo[b]thiophen-2-yl)-4-oxo-4,5-dihydro-3H-1-thia-3,5,8-triazaacenaphthylene-2-carboxamide] | 6.3 |
| CCOc1ccc(N2C(=O)Nc3c(C(=O)N[C@@H]4CCCN(C)C4)sc4nccc2c34)c(C)c1 [Example 333, (R)-5-(4-Ethoxy-2-methylphenyl)-N-(1-methylpiperidin-3-yl)-4-oxo-4,5-dihydro-3H-1-thia-3,5,8-triazaacenaphthylene-2-carboxamide] | 5.5 |
| Cc1cc(Oc2ccncc2)ccc1N1C(=O)Nc2c(C(=O)N[C@@H]3CCCN(C)C3)sc3nccc1c23 [Example 354, (R)-5-(2-Methyl-4-(pyridin-4-yloxy)phenyl)-N-(1-methylpiperidin-3-yl)-4-oxo-4,5-dihydro-3H-1-thia-3,5,8-triazaacenaphthylene-2-carboxamide] | <5 |
| Cc1cc(Oc2ccc(F)cc2F)ccc1N1C(=O)Nc2c(C(=O)N[C@@H]3CCCN(C)C3)sc3nccc1c23 [Example 302, (R)-5-(4-(2,4-Difluorophenoxy)-2-methylphenyl)-N-(1-methylpiperidin-3-yl)-4-oxo-4,5-dihydro-3H-1-thia-3,5,8-triazaacenaphthylene-2-carboxamide] | 6.0 |

Same assay, conditions: unphosphorylated-BTK kinase domain, 60 minutes incubation, 50 nM Tracer 236; pIC50 = negative log of the IC50 in molar

| SMILES | BTK_I_binding pIC50 |
| --- | --- |
| O=C(N[C@@H]1CCNC1)c1sc2nccc3c2c1NC(=O)N3c1ccc(Oc2ccccc2)cc1 [Example 911, (R)-4-Oxo-5-(4-phenoxyphenyl)-N-(pyrrolidin-3-yl)-4,5-dihydro-3H-1-thia-3,5,8-triazaacenaphthylene-2-carboxamide] | 6.6 |
| Cc1cc(Oc2ccccc2)ccc1N1C(=O)Nc2c(C(=O)N[C@H]3CCCNC3)sc3nccc1c23 [Example 912, (S)-5-(2-Methyl-4-phenoxyphenyl)-4-oxo-N-(piperidin-3-yl)-4,5-dihydro-3H-1-thia-3,5,8-triazaacenaphthylene-2-carboxamide] | 6.5 |
| Cc1cc(Oc2ccccc2)ccc1N1C(=O)Nc2c(C(=O)NC3CCN(C(=O)/C(C#N)=C/C4CC4)CC3)sc3nccc1c23 [Example 916, (E)-N-(1-(2-Cyano-3-cyclopropylacryloyl)piperidin-4-yl)-5-(2-methyl-4-phenoxyphenyl)-4-oxo-4,5-dihydro-3H-1-thia-3,5,8-triazaacenaphthylene-2-carboxamide] | 6.4 |
| COc1ccccc1Oc1ccc(N2C(=O)Nc3c(C(=O)NC4CCNCC4)sc4nccc2c34)c(C)c1 [Example 917, 5-(4-(2-Methoxyphenoxy)-2-methylphenyl)-4-oxo-N-(piperidin-4-yl)-4,5-dihydro-3H-1-thia-3,5,8-triazaacenaphthylene-2-carboxamide] | 6.4 |
| O=C(N[C@@H]1CCCNC1)c1sc2nccc3c2c1NC(=O)N3c1ccc(Oc2ccccc2)nc1 [Example 922, (R)-4-Oxo-5-(6-phenoxypyridin-3-yl)-N-(piperidin-3-yl)-4,5-dihydro-3H-1-thia-3,5,8-triazaacenaphthylene-2-carboxamide] | 6.3 |
